In the Kinase Knowledgebase extract (Sharma et al. 2016):
Values joined by “and” are separate entries in the source; they are usually repeats but may differ in a detail not shown here. Identical values can stand only once.

What was measured:
EGFR (Hamster) = EGFR (Hamster) (UniProt P00533); settings: for IC50: er22
EGFR [1] = biological target: EGFR (UniProt P00533)
EGFR [2] = biological target: EGFR (UniProt P00533); remark: listed apart in the source

Sequence of EGFR (P00533 whole entry, looked up): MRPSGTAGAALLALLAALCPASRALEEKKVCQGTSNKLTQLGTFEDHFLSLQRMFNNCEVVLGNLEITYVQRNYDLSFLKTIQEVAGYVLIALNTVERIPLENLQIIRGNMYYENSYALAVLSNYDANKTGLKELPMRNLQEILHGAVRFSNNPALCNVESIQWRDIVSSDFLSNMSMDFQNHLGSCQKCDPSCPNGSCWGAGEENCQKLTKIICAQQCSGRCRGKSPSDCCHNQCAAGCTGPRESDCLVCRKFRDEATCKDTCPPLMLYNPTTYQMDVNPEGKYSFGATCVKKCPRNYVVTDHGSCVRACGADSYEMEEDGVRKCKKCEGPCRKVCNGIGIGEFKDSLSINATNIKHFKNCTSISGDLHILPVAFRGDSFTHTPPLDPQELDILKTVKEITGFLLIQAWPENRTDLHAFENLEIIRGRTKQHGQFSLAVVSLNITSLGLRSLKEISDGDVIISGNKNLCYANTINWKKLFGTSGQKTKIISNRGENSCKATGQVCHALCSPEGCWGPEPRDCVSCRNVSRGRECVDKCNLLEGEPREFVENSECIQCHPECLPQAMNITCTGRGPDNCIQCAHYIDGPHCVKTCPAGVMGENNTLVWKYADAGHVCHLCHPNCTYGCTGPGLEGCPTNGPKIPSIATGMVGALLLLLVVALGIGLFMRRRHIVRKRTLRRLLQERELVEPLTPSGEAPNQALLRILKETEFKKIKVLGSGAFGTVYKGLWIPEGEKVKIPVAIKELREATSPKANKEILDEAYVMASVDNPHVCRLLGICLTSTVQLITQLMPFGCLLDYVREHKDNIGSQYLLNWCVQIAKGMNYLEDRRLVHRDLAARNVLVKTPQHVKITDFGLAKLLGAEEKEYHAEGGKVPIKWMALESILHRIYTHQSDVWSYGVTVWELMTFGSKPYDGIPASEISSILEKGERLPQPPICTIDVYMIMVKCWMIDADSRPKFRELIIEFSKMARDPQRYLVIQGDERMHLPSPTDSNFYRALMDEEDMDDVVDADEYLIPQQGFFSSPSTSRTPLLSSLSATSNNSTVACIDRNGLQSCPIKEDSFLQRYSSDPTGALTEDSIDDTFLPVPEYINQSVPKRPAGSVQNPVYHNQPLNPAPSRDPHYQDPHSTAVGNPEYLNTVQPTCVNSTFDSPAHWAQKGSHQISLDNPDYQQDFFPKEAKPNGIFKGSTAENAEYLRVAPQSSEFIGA
Sequence of EGFR (Hamster) (P00533 whole entry, looked up): as above

Row | IC50 (EGFR (Hamster)) | IC50 (EGFR [1]) | IC50 (EGFR [2]) [µM] | inhibition (EGFR [1]; concentration not given here) [%] | SMILES | inhibition (EGFR (Hamster); er22, dose or concentration not given here) [%]
1 | 4 µM | 5 µM |  |  | O=C(CCc1ccccc1)c1c(O)cccc1NCc1cc(O)ccc1O | 
2 | 2.5 µM | 0.95 µM |  |  | Oc1ccc(O)c(CNc2cccc(COCc3ccccc3)c2)c1 | 
3 | 8.2 µM | 1.3 µM |  |  | Oc1ccc(O)c(CNc2ccc(O)c(C(O)c3ccccc3)c2)c1 (stereo not given) | 
4 | > 10 µM | 0.12 µM |  |  | CC(C)c1ccccc1NC(=O)c1cc(NCc2cc(O)ccc2O)ccc1O | 
5 | 10 µM | 0.54 µM |  |  | COC(=O)[C@H](Cc1ccccc1)NC(=O)c1cc(NCc2cc(O)ccc2O)ccc1O | 
6 | 2.25 µM |  |  |  | O=C(OCCCc1ccccc1)c1cc(NCc2cc(O)ccc2O)ccc1O | 
7 | 10 µM | 0.3 µM |  |  | O=C(c1ccccc1)c1cc(NCc2cc(O)ccc2O)ccc1O | 
8 | > 10 µM | 0.8 µM |  |  | Oc1ccc(O)c(CNc2ccc(O)c(COCc3ccccc3)c2)c1 | 
9 | 4.8 µM | 2 µM |  |  | O=C(Cc1ccccc1)c1cccc(NCc2cc(O)ccc2O)c1O | 
10 | 6 µM and 7 µM | 0.02 µM and 0.038 µM | 0.04 |  | O=C(NCc1ccccc1)c1cc(NCc2cc(O)ccc2O)ccc1O | 
11 | > 10 µM | 0.55 µM |  |  | CN(Cc1ccccc1)C(=O)c1cc(NCc2cc(O)ccc2O)ccc1O | 
12 | > 5 µM | 0.15 µM |  |  | Oc1ccc(O)c(CNc2ccc(O)c(C(=S)NCc3ccccc3)c2)c1 | 
13 | 10 µM | 0.02 µM | 0.09 |  | O=C(Nc1ccccc1)c1cc(NCc2cc(O)ccc2O)ccc1O | 
14 | 6.5 µM | 0.16 µM |  |  | O=C(CCc1ccccc1)c1cc(NCc2cc(O)ccc2O)ccc1O | 
15 | 10 µM | 0.06 µM |  |  | O=C(Cc1ccccc1)c1cc(NCc2cc(O)ccc2O)ccc1O | 
16 | > 10 µM | 0.7 µM |  |  | Oc1ccc(O)c(CNc2ccc(O)c(COc3ccccc3)c2)c1 | 
17 | 10 µM | 0.07 µM |  |  | CC(NC(=O)c1cc(NCc2cc(O)ccc2O)ccc1O)c1ccccc1 (stereo not given) | 

The remaining lines, values behind:

Row | SMILES | IC50 (EGFR (Hamster)) | IC50 (EGFR [1]) | IC50 (EGFR [2]) [µM] | inhibition (EGFR [1]; concentration not given here) [%] | inhibition (EGFR (Hamster); er22, dose or concentration not given here) [%]
18 | CC(COCc1cccc(NCc2cc(O)ccc2O)c1)CC(C)(C)C (stereo not given) | 2.5 µM | > 10 µM |  |  | 
19 | N#Cc1cc(NCc2cc(O)ccc2O)ccc1O | > 10 µM | 0.19 µM |  |  | 
20 | CC(=O)c1cccc(NCc2cc(O)ccc2O)c1 | 12 µM | 1.3 µM |  |  | 
21 | Oc1ccc(O)c(CNc2cccc(C(O)c3ccccc3)c2)c1 (stereo not given) | 20 µM | 1.8 µM |  |  | 
22 | CC(C)(C)CC(C)(C)NC(=O)c1cc(NCc2cc(O)ccc2O)ccc1O | 9 µM | 0.22 µM | 0.3 |  | 
23 | CC(CC(=O)c1cccc(NCc2cc(O)ccc2O)c1O)CC(C)(C)C (stereo not given) |  |  |  | 24 | 
24 | CCCCCCCCCCCCCCCCC(=O)Oc1ccc(NCc2cc(O)ccc2O)cc1C(=O)NCc1ccccc1 |  | 1.5 µM |  |  | 20
25 | CC(CSCc1cc(NCc2cc(O)ccc2O)ccc1O)CC(C)(C)C (stereo not given) | 5 µM | 1.9 µM |  |  | 
26 | O=C(c1ccccc1)c1cccc(NCc2cc(O)ccc2O)c1 | 5 µM | 0.8 µM |  |  | 
27 | OCc1cc(NCc2cc(O)ccc2O)ccc1O | 12 µM | 2 µM |  |  | 
28 | CC(C)c1ccc(NC(=O)c2cc(NCc3cc(O)ccc3O)ccc2O)cc1 | > 10 µM | 0.15 µM |  |  | 
29 | COc1ccc(NCc2cc(O)ccc2O)cc1COCC(C)CC(C)(C)C (stereo not given) | 0.8 µM | 20 µM |  |  | 
30 | CC(COCc1cc(NCc2cc(O)ccc2O)ccc1O)CC(C)(C)C (stereo not given) | 2 µM | 10 µM |  |  | 
31 | CC(O)c1cccc(NCc2cc(O)ccc2O)c1 (stereo not given) | > 20 µM | 1.6 µM |  |  | 
32 | CC(COC(=O)c1cc(NCc2cc(O)ccc2O)ccc1O)CC(C)(C)C (stereo not given) |  |  | ≥ 10 |  | 
33 | CC(CNC(=O)c1cc(NCc2cc(O)ccc2O)ccc1O)CC(C)(C)C (stereo not given) | 6 µM | 0.8 µM |  |  | 
34 | CC(CC(=O)c1cc(NCc2cc(O)ccc2O)ccc1O)CC(C)(C)C (stereo not given) | 2 µM | 0.37 µM |  |  | 
35 | CC(=O)c1cc(NCc2cc(O)ccc2O)ccc1O | > 10 µM | 0.34 µM |  |  | 
